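Step 1: Grow cells in 96-well plates. Step 2: Expose to compound for 48 hours at 5 concentrations. Step 3: Interpolate endpoints linearly; if unreached, use highest concentration. The concentration for full growth arrest is given as TGI.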
Experiments:
Assay in all cases: DTP human tumour cell line panel, 48 h
[1] = tested on: HS 578T breast
[2] = tested on: HCT-116 colon
[3] = tested on: SF-268 CNS
[4] = tested on: SNB-19 CNS
[5] = tested on: KM12 colon
[6] = tested on: HOP-92 NSCLC
[7] = tested on: SK-OV-3 ovarian
[8] = tested on: A549 NSCLC
[9] = tested on: UO-31 renal
[10] = tested on: PC-3 prostate
[11] = tested on: UACC-257 melanoma
[12] = tested on: CCRF-CEM leukemia
[13] = tested on: MDA-MB-435
[14] = tested on: NCI-H522 lung
[15] = tested on: COLO 205 colon
[16] = tested on: T-47D breast
[17] = tested on: SNB-75 CNS
[18] = tested on: HCT-15 colon
[19] = tested on: MOLT-4 leukemia
[20] = tested on: ACHN renal
[21] = tested on: OVCAR-5 ovarian
[22] = tested on: LOX IMVI melanoma
[23] = tested on: SK-MEL-2 melanoma
[24] = tested on: SK-MEL-28 melanoma
[25] = tested on: NCI/ADR-RES ovarian
[26] = tested on: DU-145 prostate
[27] = tested on: HL-60(TB) leukemia
[28] = tested on: SR leukemia
[29] = tested on: SF-295 CNS
[30] = tested on: SK-MEL-5 melanoma
[31] = tested on: MCF7 breast
[32] = tested on: SN12C renal
[33] = tested on: SF-539 CNS
[34] = tested on: UACC-62 melanoma
[35] = tested on: M14 melanoma
[36] = tested on: EKVX NSCLC
[37] = tested on: OVCAR-3 ovarian
[38] = tested on: K-562 leukemia
[39] = tested on: MDA-N
[40] = tested on: MALME-3M melanoma
[41] = tested on: BT-549 breast
[42] = tested on: CAKI-1 renal
[43] = tested on: HCC-2998 colon
[44] = tested on: 786-0 renal
[45] = tested on: A498 renal
[46] = tested on: IGROV1 ovarian
[47] = tested on: HT29 colon
[48] = tested on: NCI-H23 lung
[49] = tested on: SW-620 colon
[50] = tested on: NCI-H226 lung
[51] = tested on: RXF 393 renal
[52] = tested on: RPMI-8226 leukemia
[53] = tested on: OVCAR-8 ovarian
[54] = tested on: HOP-62 NSCLC
[55] = tested on: OVCAR-4 ovarian

With `CN(C)c1ccc(C2C(Cl)C(=O)N2NC(=O)c2c(Cl)c(Cl)c(Cl)c(Cl)c2-c2nc3ccccc3[nH]2)cc1` (centres undefined) the TGI [1] was > 100 µM, the TGI [2] was 23.9 µM and the TGI [3] was 43.5 µM. It also gave a TGI [4] of 94.3 µM, a TGI [5] of 48.4 µM and a TGI [6] of 23.9 µM. The TGI [7] was > 100 µM, the TGI [8] was > 100 µM and the TGI [9] was 78.5 µM. For the same compound, the TGI [10] was 50.9 µM, the TGI [11] was 44.6 µM and the TGI [12] was > 100 µM. The TGI [13] was > 100 µM, the TGI [14] was 11.9 µM and the TGI [15] was 66.1 µM. For the same compound, the TGI [16] was 25.2 µM, the TGI [17] was 44.3 µM and the TGI [18] was 32.6 µM. For the same compound, the TGI [19] was > 100 µM, the TGI [20] was 34.6 µM and the TGI [21] was > 100 µM. The TGI [22] was 30 µM, the TGI [23] was 86.7 µM and the TGI [24] was > 100 µM. For the same compound, the TGI [25] was > 100 µM, the TGI [26] was 22.5 µM and the TGI [27] was 28.8 µM. The TGI [28] was > 100 µM, the TGI [29] was > 100 µM and the TGI [30] was 48.6 µM. The TGI [31] was 23.1 µM, the TGI [32] was 38.4 µM and the TGI [33] was 57.4 µM. The TGI [34] was 37.5 µM, the TGI [35] was 51.7 µM and the TGI [36] was 67.4 µM. For the same compound, the TGI [37] was 44.7 µM, the TGI [38] was > 100 µM and the TGI [39] was 55.8 µM. It also gave a TGI [40] of 36.3 µM, a TGI [41] of 33.2 µM and a TGI [42] of 41.1 µM. It also gave a TGI [43] of 30.2 µM, a TGI [44] of 6.2 µM and a TGI [45] of 40.2 µM. For the same compound, the TGI [46] was 17.2 µM, the TGI [47] was 68.9 µM and the TGI [48] was 29.7 µM. For the same compound, the TGI [49] was > 100 µM, the TGI [50] was 69.7 µM and the TGI [51] was 8.96 µM.

`C(=N\c1cc2cc(Sc3ccccc3)ccc2[nH]1)/c1ccccc1` was tested, and the TGI [1] was > 12.5 µM, the TGI [2] was > 12.5 µM and the TGI [3] was > 12.5 µM. The TGI [4] was > 12.5 µM, the TGI [5] was > 12.5 µM and the TGI [6] was > 12.5 µM. For the same compound, the TGI [52] was > 12.5 µM, the TGI [8] was > 12.5 µM and the TGI [10] was > 12.5 µM. For the same compound, the TGI [11] was > 12.5 µM, the TGI [12] was > 12.5 µM and the TGI [13] was > 12.5 µM. For the same compound, the TGI [14] was > 12.5 µM, the TGI [16] was > 12.5 µM and the TGI [17] was > 12.5 µM. For the same compound, the TGI [53] was > 12.5 µM, the TGI [18] was > 12.5 µM and the TGI [19] was > 12.5 µM. The TGI [20] was > 12.5 µM, the TGI [22] was > 12.5 µM and the TGI [24] was > 12.5 µM. For the same compound, the TGI [54] was > 12.5 µM, the TGI [25] was > 12.5 µM and the TGI [26] was > 12.5 µM. For the same compound, the TGI [27] was > 12.5 µM, the TGI [28] was > 12.5 µM and the TGI [29] was > 12.5 µM. The TGI [30] was > 12.5 µM, the TGI [31] was > 12.5 µM and the TGI [32] was > 12.5 µM. For the same compound, the TGI [33] was > 12.5 µM, the TGI [34] was > 12.5 µM and the TGI [55] was > 12.5 µM. For the same compound, the TGI [35] was > 12.5 µM, the TGI [36] was > 12.5 µM and the TGI [37] was > 12.5 µM. The TGI [38] was > 12.5 µM, the TGI [39] was > 12.5 µM and the TGI [40] was > 12.5 µM. For the same compound, the TGI [41] was > 12.5 µM, the TGI [42] was > 12.5 µM and the TGI [43] was > 12.5 µM. The TGI [44] was > 12.5 µM, the TGI [45] was > 12.5 µM and the TGI [47] was > 12.5 µM. For the same compound, the TGI [48] was > 12.5 µM, the TGI [49] was > 12.5 µM and the TGI [51] was > 12.5 µM.
